Source: patent publication US20260166128A1, “HUMAN AMYLIN ANALOG, AND DERIVATIVE THEREOF AND USE THEREOF” (priority 2022, published 2026)
Numbered stars: 1 amine (or outer) side, 2 acyl side, 3 side chain; on linkers, the order of the positions; unused ones are H or OH. Bridge positions count the residues as written; N and C are the ends. Square brackets hold non-standard residues; d marks the D form. Peptide text beside a SMILES is read from it. * marks the point of attachment. C20 diacid = O=C(O)CCCCCCCCCCCCCCCCCCC(=O)*; C18 diacid = O=C(O)CCCCCCCCCCCCCCCCC(=O)*; γGlu = O=C(O)[C@H](CCC(=O)[*:2])N[*:1]; Hyp = O=C(O)[C@@H]1C[C@@H](O)CN1

target: T1, human amylin receptor (Homo sapiens, UniProt O60896+P30988); experiment: Luciferase assay of amylin derivatives in amylin receptor/CRE-luc CHO cell line; format: cell-based; settings: CHO-K1/Ga15/AMY3 CRE-luc cells, 24 hours incubation, F12 medium containing 10% FBS; read-out: EC50
T1 construct: host or cells: CHO-K1/Ga15/AMY3 cells, further stably transfected with a CRE-luciferase plasmid
T1 sequence (P30988 25-474): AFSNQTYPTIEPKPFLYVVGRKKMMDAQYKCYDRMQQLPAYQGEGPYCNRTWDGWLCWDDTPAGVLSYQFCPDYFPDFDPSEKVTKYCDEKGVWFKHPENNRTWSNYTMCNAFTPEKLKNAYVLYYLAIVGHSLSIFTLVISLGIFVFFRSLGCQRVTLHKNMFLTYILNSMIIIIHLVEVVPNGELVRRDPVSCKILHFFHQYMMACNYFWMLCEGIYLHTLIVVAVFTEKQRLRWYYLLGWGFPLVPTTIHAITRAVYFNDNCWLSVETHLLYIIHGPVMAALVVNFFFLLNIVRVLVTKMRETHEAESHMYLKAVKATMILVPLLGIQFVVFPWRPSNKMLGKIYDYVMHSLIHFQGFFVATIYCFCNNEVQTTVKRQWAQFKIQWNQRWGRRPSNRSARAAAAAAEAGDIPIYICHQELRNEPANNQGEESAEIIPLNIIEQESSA
T1 sequence (O60896 24-148 partner): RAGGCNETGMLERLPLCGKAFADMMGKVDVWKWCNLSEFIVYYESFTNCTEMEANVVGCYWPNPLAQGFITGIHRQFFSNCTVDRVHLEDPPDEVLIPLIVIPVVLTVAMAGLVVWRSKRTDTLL
Method: The experiment was intended to detect the activity or efficacy of the amylin derivatives on a human amylin receptor in vitro by luciferase assay.
50 μL of growth medium (F12 medium containing 10% FBS) was added into each well of a white 96-well plate, and the stably transfected amylin/CRE-lue CHO cells were inoculated into the white 96-well plate at a density of about 20,000 cells/well for activity determination.

| SMILES | EC50 [nM] |
| --- | --- |
| CC[C@H](C)[C@H](NC(=O)[C@@H]1CCCN1C(=O)CNC(=O)[C@H](CC(C)C)NC(=O)[C@H](CC(N)=O)NC(=O)[C@H](CC(N)=O)NC(=O)[C@H](CO)NC(=O)[C@H](CO)NC(=O)[C@H](Cc1c[nH]cn1)NC(=O)[C@H](CCCNC(=N)N)NC(=O)[C@H](CC(C)C)NC(=O)[C@H](Cc1ccccc1)NC(=O)[C@H](CC(=O)O)NC(=O)[C@H](C)NC(=O)[C@H](CC(C)C)NC(=O)[C@H](CCCNC(=N)N)NC(=O)[C@H](CCC(N)=O)NC(=O)[C@@H](NC(=O)[C@H](C)NC(=O)[C@@H]1CSSC[C@H](NC(=O)[C@H](CCCCN)NC(=O)CC[C@H](NC(=O)CCCCCCCCCCCCCCCCC(=O)O)C(=O)O)C(=O)N[C@@H](CC(N)=O)C(=O)N[C@@H]([C@@H](C)O)C(=O)N[C@@H](C)C(=O)N[C@@H]([C@@H](C)O)C(=O)N1)[C@@H](C)O)C(=O)N[C@@H](CC(C)C)C(=O)N1CCC[C@H]1C(=O)N1CCC[C@H]1C(=O)N[C@H](C(=O)N[C@@H](CC(N)=O)C(=O)N[C@H](C(=O)NCC(=O)N[C@@H](CO)C(=O)N[C@@H](CC(N)=O)C(=O)N[C@H](C(=O)N1C[C@H](O)C[C@H]1C(N)=O)[C@@H](C)O)C(C)C)[C@@H](C)O [PD124] ({C18 diacid-γGlu}-KCNTATCATQRLADFLRHSSNNLGPILPPTNVGSNT[Hyp]-NH2; disulfide 2-7) | 0.008 |
| CC[C@H](C)[C@H](NC(=O)[C@@H]1CCCN1C(=O)CNC(=O)[C@H](Cc1ccccc1)NC(=O)[C@H](CC(N)=O)NC(=O)[C@H](CC(N)=O)NC(=O)[C@H](CO)NC(=O)[C@H](CO)NC(=O)[C@H](Cc1c[nH]cn1)NC(=O)[C@@H](NC(=O)[C@H](CC(C)C)NC(=O)[C@H](Cc1ccccc1)NC(=O)[C@H](CC(N)=O)NC(=O)[C@H](C)NC(=O)[C@H](CC(C)C)NC(=O)[C@H](CCCNC(=N)N)NC(=O)[C@H](CCC(N)=O)NC(=O)[C@@H](NC(=O)[C@H](C)NC(=O)[C@@H]1CSSC[C@H](NC(=O)[C@H](CCCCN)NC(=O)CC[C@H](NC(=O)CCCCCCCCCCCCCCCCCCC(=O)O)C(=O)O)C(=O)N[C@@H](CC(N)=O)C(=O)N[C@@H]([C@@H](C)O)C(=O)N[C@@H](C)C(=O)N[C@@H]([C@@H](C)O)C(=O)N1)[C@@H](C)O)C(C)C)C(=O)N[C@@H](CC(C)C)C(=O)N1CCC[C@H]1C(=O)N1CCC[C@H]1C(=O)N[C@H](C(=O)N[C@@H](CC(N)=O)C(=O)N[C@H](C(=O)NCC(=O)N[C@@H](CO)C(=O)N[C@@H](CC(N)=O)C(=O)N[C@H](C(=O)N[C@@H](Cc1ccc(O)cc1)C(N)=O)[C@@H](C)O)C(C)C)[C@@H](C)O [PD156] ({C20 diacid-γGlu}-KCNTATCATQRLANFLVHSSNNFGPILPPTNVGSNTY-NH2; disulfide 2-7 (inferred)) | 0.029 |
| CC[C@H](C)[C@H](NC(=O)[C@@H]1CCCN1C(=O)[C@H](Cc1c[nH]cn1)NC(=O)[C@H](CC(C)C)NC(=O)[C@H](CC(N)=O)NC(=O)[C@H](CC(N)=O)NC(=O)[C@H](CO)NC(=O)[C@H](CO)NC(=O)[C@H](Cc1c[nH]cn1)NC(=O)[C@H](CCCNC(=N)N)NC(=O)[C@H](CC(C)C)NC(=O)[C@H](Cc1ccccc1)NC(=O)[C@H](CC(=O)O)NC(=O)[C@H](C)NC(=O)[C@H](CC(C)C)NC(=O)[C@H](CCCNC(=N)N)NC(=O)[C@H](CCC(N)=O)NC(=O)[C@@H](NC(=O)[C@H](C)NC(=O)[C@@H]1CSSC[C@H](NC(=O)[C@H](CCCCN)NC(=O)CC[C@H](NC(=O)CCCCCCCCCCCCCCCCCCC(=O)O)C(=O)O)C(=O)N[C@@H](CC(N)=O)C(=O)N[C@@H]([C@@H](C)O)C(=O)N[C@@H](C)C(=O)N[C@@H]([C@@H](C)O)C(=O)N1)[C@@H](C)O)C(=O)N[C@@H](CC(C)C)C(=O)N1CCC[C@H]1C(=O)N1CCC[C@H]1C(=O)N[C@H](C(=O)N[C@@H](CC(N)=O)C(=O)N[C@H](C(=O)NCC(=O)N[C@@H](CO)C(=O)N[C@@H](CC(N)=O)C(=O)N[C@H](C(=O)N1C[C@H](O)C[C@H]1C(N)=O)[C@@H](C)O)C(C)C)[C@@H](C)O [PD159] ({C20 diacid-γGlu}-KCNTATCATQRLADFLRHSSNNLHPILPPTNVGSNT[Hyp]-NH2; disulfide 2-7) | 0.037 |
| CC[C@H](C)[C@H](NC(=O)[C@@H]1CCCN1C(=O)[C@H](Cc1c[nH]cn1)NC(=O)[C@H](CC(C)C)NC(=O)[C@H](CC(N)=O)NC(=O)[C@H](CC(N)=O)NC(=O)[C@H](CO)NC(=O)[C@H](CO)NC(=O)[C@H](Cc1c[nH]cn1)NC(=O)[C@H](CCCNC(=N)N)NC(=O)[C@H](CC(C)C)NC(=O)[C@H](Cc1ccccc1)NC(=O)[C@H](CC(=O)O)NC(=O)[C@H](C)NC(=O)[C@H](CC(C)C)NC(=O)[C@H](CCCNC(=N)N)NC(=O)[C@H](CCC(N)=O)NC(=O)[C@@H](NC(=O)[C@H](C)NC(=O)[C@@H]1CSSC[C@H](NC(=O)[C@H](CCCCN)NC(=O)CC[C@H](NC(=O)CCCCCCCCCCCCCCCCCCC(=O)O)C(=O)O)C(=O)N[C@@H](CC(N)=O)C(=O)N[C@@H]([C@@H](C)O)C(=O)N[C@@H](C)C(=O)N[C@@H]([C@@H](C)O)C(=O)N1)[C@@H](C)O)C(=O)N[C@@H](CC(C)C)C(=O)N1CCC[C@H]1C(=O)N1CCC[C@H]1C(=O)N[C@H](C(=O)N[C@@H](CC(N)=O)C(=O)N[C@H](C(=O)NCC(=O)N[C@@H](CO)C(=O)N[C@@H](CC(N)=O)C(=O)N[C@H](C(=O)N1CCC[C@H]1C(N)=O)[C@@H](C)O)C(C)C)[C@@H](C)O [PD162] ({C20 diacid-γGlu}-KCNTATCATQRLADFLRHSSNNLHPILPPTNVGSNTP-NH2; disulfide 2-7 (inferred)) | 0.035 |
| CC[C@H](C)[C@H](NC(=O)[C@@H]1CCCN1C(=O)[C@@H]1CCCN1C(=O)[C@H](CC(C)C)NC(=O)[C@H](CC(N)=O)NC(=O)[C@H](CC(N)=O)NC(=O)[C@H](CO)NC(=O)[C@H](CO)NC(=O)[C@H](Cc1c[nH]cn1)NC(=O)[C@H](CCCNC(=N)N)NC(=O)[C@H](CC(C)C)NC(=O)[C@H](Cc1ccccc1)NC(=O)[C@H](CC(=O)O)NC(=O)[C@H](C)NC(=O)[C@H](CC(C)C)NC(=O)[C@H](CCCNC(=N)N)NC(=O)[C@H](CCC(N)=O)NC(=O)[C@@H](NC(=O)[C@H](C)NC(=O)[C@@H]1CSSC[C@H](NC(=O)[C@H](CCCCN)NC(=O)CC[C@H](NC(=O)CCCCCCCCCCCCCCCCCCC(=O)O)C(=O)O)C(=O)N[C@@H](CC(N)=O)C(=O)N[C@@H]([C@@H](C)O)C(=O)N[C@@H](C)C(=O)N[C@@H]([C@@H](C)O)C(=O)N1)[C@@H](C)O)C(=O)N[C@@H](CC(C)C)C(=O)N1CCC[C@H]1C(=O)N1CCC[C@H]1C(=O)N[C@H](C(=O)N[C@@H](CC(N)=O)C(=O)N[C@H](C(=O)NCC(=O)N[C@@H](CO)C(=O)N[C@@H](CC(N)=O)C(=O)N[C@H](C(=O)N1CCC[C@H]1C(N)=O)[C@@H](C)O)C(C)C)[C@@H](C)O [PD163] ({C20 diacid-γGlu}-KCNTATCATQRLADFLRHSSNNLPPILPPTNVGSNTP-NH2; disulfide 2-7 (inferred)) | 0.084 |
